According to patent publication US20110071072A1, “Antifungal Bone Cements” (Georgetown University, A Congressionally Chartered …, priority 2009, published 2011):
Numbered stars: 1 amine (or outer) side, 2 acyl side, 3 side chain; on linkers, the order of the positions; unused ones are H or OH. Bridge positions count the residues as written; N and C are the ends. Square brackets hold non-standard residues; d marks the D form. Peptide text beside a SMILES is read from it. * marks the point of attachment. hTyr(3S-OH,4S-OH,3'-OSO3H) = N[C@H](C(=O)O)[C@H](O)[C@@H](O)c1ccc(O)c(OS(=O)(=O)O)c1; Orn(4R-OH,5R-OH) = O=C([C@H](C[C@@H](O)[C@@H](O)N[*:3])N[*:1])[*:2]; Pro(3S-OH,4S-Me) = C[C@H]1CN[C@H](C(=O)O)[C@H]1O; X1 = CCCCCOc1ccc(-c2cc(-c3ccc(C(=O)*)cc3)no2)cc1; Gln(3R-OH) = NC(=O)C[C@@H](O)[C@H](N)C(=O)O; Hyp = O=C(O)[C@@H]1C[C@@H](O)CN1

Columns and labels:
[1] = tested on: C. albicans; test: Agar diffusion: zone of growth inhibition around PM-cement discs impregnated with antifungal; format: cell-based; conditions: for duration of activity / inhibitory activity compared with voriconazole: PM cement discs; for duration of activity: days of incubation; for inhibitory activity compared with voriconazole: in words; for time up to which anti-candida activity was detected: cement discs, post-incubation
Experimental: The echinocandin antifungal micafungin or the triazole voriconazole were mixed with polymethylmethacrylate and a bone cement was formed using the mixture. C. albicans was grown overnight in T-soy broth, washed in buffer, then 1000 C. albicans yeast cells were added to the agar surface of a medium containing RPMI, MOPS, and 2% glucose, which was prepared by adding the latter to autoclaved agar after the agar had cooled for 15 min. Cement discs containing micafungin (100 mg) or voriconazole (400 mg) were prepared as described below. Each cement-antifungal disc was placed on the agar culture medium containing the organism.
The antifungal-cement mix (Smartset HV®, bone cement, DePuy (Warsaw, Ind.)) was prepared as follows under sterile conditions: the polymethylmethacrylate (PM) cement powder (part 1) was first mixed thoroughly with each drug and, then 18.88 g of bone cement liquid (part 2) was added to the mixture. Discs of cement-drug were prepared quickly before the cement hardened. Each cement disc (14 mm) was then placed in the center of inoculated agar cultures in 60 mm petri dishes. The plates were then incubated at 30° C. and zones of inhibition were measured every 24 hrs until activity was not observed (usually 6 days). The same discs were removed daily and placed on fresh agar medium that was inoculated similarly.
At 24 hrs, cement discs containing the antifungal micafungin were about 2.5-fold greater in activity that voriconazole. Further, the activity of micafungin was still detected at 120 hrs post-incubation, while no activity was detected after 24 hrs with voriconazole. Data were plotted as mm growth inhibition versus days of incubation (Table 1). The plates were digitally photographed using image processing software.

[2] = tested on: C. albicans; test: Growth inhibition by PM-cement or hydroxyapatite (HA) infiltrated with micafungin or anidulafungin (FIG. 2); format: cell-based, Candida albicans
Experimental: FIG. 2 is a graph showing comparisons of micafungin (MIC) and anidulafungin (ANA) infiltrated in hydrozyapatite (HA) or polymethylmethacrylate (PM)-cement and their inhibitory activity against C. albicans.
Both PM-cement and hydroxyapatite (HA) infiltrated with either micafungin or anidulafungin were evaluated. […] The results again indicated the superiority of micafungin (especially the longevity or diffusion of the drug) regardless of whether the drug was infiltrated in HA or PM cement.

SMILES | duration of activity [1] | inhibitory activity compared with voriconazole [1] | inhibitory activity compared with voriconazole ([1]; listed as Micafungin) | activity of cement discs relative to voriconazole discs ([1]; at 24 hrs, micafungin 100 mg vs voriconazole 400 mg discs) | time up to which anti-candida activity was detected [1] | in vitro anti-Candida albicans activity, comparison ([2]; HA or PM cement, in words) | persistence of activity ([2]; drug infiltrated in HA or PM cement) | duration of activity ([1]; listed as voriconzole)
CCCCCOc1ccc(-c2cc(-c3ccc(C(=O)N[C@H]4C[C@@H](O)[C@@H](O)NC(=O)[C@@H]5[C@@H](O)[C@@H](C)CN5C(=O)[C@H]([C@H](O)CC(N)=O)NC(=O)[C@H]([C@H](O)[C@@H](O)c5ccc(O)c(OS(=O)(=O)O)c5)NC(=O)[C@@H]5C[C@@H](O)CN5C(=O)[C@H]([C@@H](C)O)NC4=O)cc3)no2)cc1 [micafungin] (X1-[Orn(4R-OH,5R-OH)]T[Hyp][hTyr(3S-OH,4S-OH,3'-OSO3H)][Gln(3R-OH)][Pro(3S-OH,4S-Me)]; lactam 1-C) | ≥ 6 days | much greater | superior and longer lasting | about 2.5 fold | ≥ 120 h | significantly greater than that of voriconazole and anidulafungin | 6 to 7 days | 
C[C@@H](c1ncncc1F)[C@](O)(Cn1cncn1)c1ccc(F)cc1F [voriconazole] | 1 days |  |  |  | ≤ 24 h |  |  | ≤ 1 days
